Source: US10682367B2, “Antitumor arylnaphthalene ligand glycosides” (OHIO STATE INNOVATION FOUNDATION, priority 2016, dated 2020)
Values after ≈ are worked out from the molar mass of the structure shown.

Tests used:
Hollow fiber assay = assay: Hollow fiber assay; design: species or system mice; conditions: mouse
Description: Hollow fiber assay, IVIS imaging, tubulin inhibition, autophagy, and tumor burden were determined in mice exposed to various arylnaphthalene ligans.

mice = assay: Toxicity and maximum tolerated dose in mice by IV, IP or PO route; type: in vivo; conditions: for MTD (maximum tolerated dose) / Toxicity (survival): mice
Description: To determine toxicity, PHY-34 was administered to mice by the bolus intravenous (IV), bolus intraperitoneal (IP), or oral (PO) route to the assigned animals.

[1] = system: OVCAR8 ovarian cancer cell line; assay: IC50 in ovarian cancer cell line OVCAR8; type: cell-based; conditions: OVCAR8
Description: (§1) The compounds shown in FIG. 2 were tested against two different ovarian cancer cell lines (xenograft mouse model OVCAR3 and OVCAR8 ovarian cancer cell lines). […] A summary of the test data is shown in FIGS. 3A, 3B, and 4 and Table 3. A comparison of the IC50 values of the compounds in FIG. 2 in two of the ovarian cancer cell lines (OVCAR3 and OVCAR8) reveal subtle differences in activity.

HT-29 cells = assay: Cytotoxicity / antiproliferative activity against HT-29 cells; type: cell-based; conditions: in vitro
Text: The cytotoxicity of the compounds in FIG. 1 was screened against HT-29 cells by a previously reported procedure (Ren Y et al. J. Nat. Prod 2011, 74, 1117-1125). A summary of the results is described in Table 1.

[2] = mouse, in vivo
Description: (§2) The solubility, maximum tolerated dose, and pharmacokinetics of the phyllanthusmins, facilitating the in vivo studies with PHY-34, were also determined. The solubility of the compounds were assessed in DMSO, PEG300, HPβCD, and PBS. The stability of PHY-34 was assessed in a formulation comprising PEG300 and saline at a 1:1 volume ratio. The solution was prepared at a concentration of 7 mg/ml. A plate reader-based absorbance assay or LC-MS/MS was used. Table 4 summarizes the solubility measurements. FIG. 5 and Table 5 summarize the stability measurements. FIGS. 6A and 6B show the concentration-time profile of PHY-34 in mouse plasma via different administration routes

[3] = Solubility, plate reader-based absorbance assay; type: physicochemical
Text: A series of compounds were synthesized to improve their water solubility. In particular, phyllanthusmin derivatives including an arabinose derivative with a free C2 hydroxy group, have been explored to produce phosphate, succinate, and amino acid conjugates. In addition PHY-25 and PHY-30 have also been synthesized to contain similar alcohol functionality that can ultimately be utilized to improve water solubility. PHY-28 and PHY-29 containing a glucosamine moiety were also synthesized for improved water solubility. The water solubility of these and other PHY derivatives was assessed (Table 2) to establish a baseline of solubility in a series of 4 solutions. This was accomplished using a plate reader-based absorbance assay.
as §2

[4] = Stability of PHY-34 in PEG300/saline formulation; type: physicochemical; conditions: for Stability of PHY-34 / Stability of PHY-34, second value column: PEG300:saline 1:1, 7 mg/ml
Description: as §2

[5] = system: numerous other cell lines; assay: In vitro activity in numerous other cell lines; type: cell-based
[6] = system: OVCAR3 ovarian cancer cell line; assay: IC50 in ovarian cancer cell line OVCAR3; type: cell-based; conditions: OVCAR3
Description: as §1

COc1cc2c(OC3OC(CO)C4OC(C)(C)OC4C3O)c3c(c(-c4ccc5c(c4)OCO5)c2cc1OC)C(=O)OC3 (centres unmarked) [PHY-34]
efficacy in vivo in hollow fiber assay (in words) (Hollow fiber assay): demonstrated efficacy | MTD (maximum tolerated dose) (mice; IP): 1.8 mpk | Toxicity (survival) (mice; IP, 0.6 mpk): all 3 alive | Toxicity (survival) (mice; IP, 1.8 mpk): all 5 alive | Toxicity (survival) (mice; IP, 3 mpk, within 0.5): all 3 died within 0.5 | Toxicity (survival) (mice; IP, 6 mpk, within 0.5 hour): all 5 died within 0.5 | MTD (maximum tolerated dose) (mice; IV): 0.6 mpk | Toxicity (survival) (mice; IV, 0.3 mpk): all 5 alive | Toxicity (survival) (mice; IV, 0.6 mpk): all 5 alive | Toxicity (survival) (mice; IV, 1 mpk, within 0.5 hour): 1 out of 5 died within | Toxicity (survival) (mice; IV, 3 mpk, within 5 minutes): all 5 died within 5 | MTD (maximum tolerated dose) (mice; PO): >30 mpk | Toxicity (survival) (mice; PO, 30 mpk): all 5 alive | toxicity on oral dosing (in words) (mice; oral dosing, up to 30 mpk): no toxicity | IC50 [1]: 4.06 nM | potency in ovarian cancer cell lines (in words) [1]: highest potency | activity against HT-29 cells (in words) (HT-29 cells): sub-nanomolar | AUC on oral dosing (in words) [2]: reasonable AUCs | Solubility in 30% HPβCD [3]: 1.7 mg/mL (≈ 2.92 mM) | Solubility in DMSO [3]: 114.4 mg/mL (≈ 196 mM) | Solubility in PBS [3]: 0.03 mg/mL (≈ 0.0515 mM) | Solubility in PEG300 [3]: 27.6 mg/mL (≈ 47.4 mM) | Stability of PHY-34 ([4]; 4° C., 1 week): 86 | Stability of PHY-34 ([4]; 4° C., 1 day): 95 | Stability of PHY-34, second value column ([4]; 4° C., 1 day): 77 | Stability of PHY-34 ([4]; RT, 0 hr): 100 | Stability of PHY-34, second value column ([4]; RT, 0 hr): 100 | Stability of PHY-34 ([4]; RT, 6 hr): 87 | Stability of PHY-34, second value column ([4]; RT, 6 hr): 82 | Stability of PHY-34 ([4]; −20° C., 1 week): 87 | Stability of PHY-34, second value column ([4]; −20° C., 1 week): 77 | Stability of PHY-34 ([4]; −20° C., 1 day): 90 | Stability of PHY-34, second value column ([4]; −20° C., 1 day): 82 | Stability of PHY-34 ([4]; −80° C., 1 week): 86 | Stability of PHY-34, second value column ([4]; −80° C., 1 week): 81 | Stability of PHY-34 ([4]; −80° C., 1 day): 93 | Stability of PHY-34, second value column ([4]; −80° C., 1 day): 80 | stability of PHY-34 solution upon storage (in words) ([4]; storage for one week at 4° C. to −80° C.): stable (no significant degradation) | activity in numerous other cell lines (in words) [5]: single digit nanomolar | IC50 [6]: 3.94 nM | potency in ovarian cancer cell lines (in words) [6]: highest potency
